This passage reports permeability results from US8039444B2, “Antisense permeation enhancers” (Isis Pharmaceuticals, Inc., priority 2001, dated 2011).

For the series the following is noted: monkey, not told, po.

For “GCTGATTAGAGAGAGGTCCC (GCTGATTAGAGAGAGGTCCC; chemistry not given here) [antisense oligonucleotide]”, the permeability entry is recorded as “poor permeability”.
